From paper PMC5653977 (EMBO Molecular Medicine, 2017)
Where a name gives a salt, the structure may show the parent alone.

system: NRG1-ERBB4 signaling; experiment: Nrg1-ERBB4-PIK3R1 split TEV co-culture compound screen of the NIH Clinical Collection; type: cell-based, human; details: NIH Clinical Collection NCC-003 raw data; compounds ranked by Z-score; 'flagged' given instead of a Z-score

`COC(=O)Nc1nc2cc(C(=O)c3ccc(F)cc3)ccc2[nH]1` [FLUBENDAZOLE] was tested, and the Z-SCORE was “flagged”.
With `COC(=O)C[C@](O)(CCCC(C)(C)O)C(=O)O[C@@H]1C(OC)=C[C@]23CCCN2CCc2cc4c(cc2[C@H]13)OCO4` [HOMOHARRINGTONINE] the Z-SCORE was “flagged”.
For `C=CCc1ccc(O)c(-c2ccc(O)c(CC=C)c2)c1` [HONOKIOL], the Z-SCORE was “flagged”.
In the case of `CC(=O)[C@]1(O)Cc2c(O)c3c(c(O)c2[C@@H](O[C@H]2C[C@H](N)[C@H](O)[C@H](C)O2)C1)C(=O)c1ccccc1C3=O` [IDARUBICIN HCl], the Z-SCORE is reported as “flagged”.
With `O=C([O-])C[C@H](O)C[C@H](O)/C=C/c1c(C2CC2)nc2ccccc2c1-c1ccc(F)cc1.O=C([O-])C[C@H](O)C[C@H](O)/C=C/c1c(C2CC2)nc2ccccc2c1-c1ccc(F)cc1.[Ca+2]` [ITAVASTATIN Ca] the Z-SCORE was “flagged”.

First: CC(C(=O)O)c1ccc(-c2ccccc2)c(F)c1 (stereo not shown) [Flurbiprofen, reference compound]
Second: COC(=O)C1=C(C)NC(C)=C(C(=O)OC(C)C)C1c1cccc2nonc12 (stereo not shown) [ISRADIPINE]
The Z-SCORE of the first is higher: -1.64 for the first, -1.94 for the second.

Going from `CC(C)C[C@H](NC(=O)[C@@H](COC(C)(C)C)NC(=O)[C@H](Cc1ccc(O)cc1)NC(=O)[C@H](CO)NC(=O)[C@H](Cc1c[nH]c2ccccc12)NC(=O)[C@H](Cc1cnc[nH]1)NC(=O)[C@@H]1CCC(=O)N1)C(=O)N[C@@H](CCCNC(=N)N)C(=O)N1CCC[C@H]1C(=O)NNC(N)=O` [GOSERELIN ACETATE] to `Nc1nc(N)nc(-c2cc(Cl)ccc2Cl)n1` [IRSOGLADINE MALEATE], the Z-SCORE rises from -1.23 to -1.2.

same assay, conditions: compound screen of the NIH Clinical Collection, sheet raw data NCC-003; compounds ranked by Z-score

First: CC(C)(C)NC(=O)[C@H]1CC[C@H]2[C@@H]3CC[C@H]4NC(=O)C=C[C@]4(C)[C@H]3CC[C@]12C [FINASTERIDE]
Second: C[C@@H]1C[C@H]2[C@@H]3C[C@H](F)C4=CC(=O)C(Cl)=C[C@]4(C)[C@@]3(F)[C@@H](O)C[C@]2(C)[C@@]1(O)C(=O)CO.O [HALOMETASONE MONOHYDRATE]
The Z-SCORE of the first is lower: -0.75 for the first, -0.25 for the second.

Compared with `CCOC(=O)c1ncn2c1CN(C)C(=O)c1cc(F)ccc1-2` [FLUMAZENIL], `CN1CCN(C2=Nc3cc(F)ccc3Cc3ccccc32)CC1` [Fluperlapine] is lower in Z-SCORE: 0.09 for the first, -0.5 for the second.

Going from `CCC(=O)O[C@]1(C(=O)SCF)[C@H](C)C[C@H]2[C@@H]3C[C@H](F)C4=CC(=O)C=C[C@]4(C)[C@@]3(F)[C@@H](O)C[C@@]21C` [FLUTICASONE PROPIONATE] to `CCC1=C(C)CN(C(=O)NCCc2ccc(S(=O)(=O)NC(=O)N[C@H]3CC[C@H](C)CC3)cc2)C1=O` [GLIMEPIRIDE], the Z-SCORE rises from -0.31 to 0.02.

Going from `O=c1[nH]c(=O)n(C2CCCO2)cc1F` (stereo not shown) [FTORAFUR] to `O=C(CCCN1CCC(O)(c2ccc(Cl)cc2)CC1)c1ccc(F)cc1` [Haloperidol], the Z-SCORE falls from -0.09 to -0.98.

Compared with `NC(=O)OCC(COC(N)=O)c1ccccc1` [Felbamate], `CCOC(=O)c1ccc(OC(=O)CCCCCN=C(N)N)cc1.CS(=O)(=O)O` [Gabexate mesylate] is lower in Z-SCORE: -0.25 for the first, -0.47 for the second.

Going from `COCCCC/C(=N\OCCN)c1ccc(C(F)(F)F)cc1` [Fluvoxamine] to `CC(CCCCC(=O)Nc1ccc(C(F)(F)F)cc1)NCCc1cnc[nH]1` (stereo not shown) [HTMT], the Z-SCORE rises from -0.2 to -0.18.

Compared with `COC(=O)N1CCN(C(=O)Cc2ccc(Cl)c(Cl)c2)C(CN2CCCC2)C1` (stereo not shown) [GR 89696], `CNC1CC(c2ccc(Cl)c(Cl)c2)c2ccccc21` (stereo not shown) [Indatraline] is lower in Z-SCORE: 1.46 for the first, 0.28 for the second.

Compared with `CN1C2CCCC1CC(NC(=O)c1nn(C)c3ccccc13)C2` (stereo not shown) [GRANISETRON HCl], `C[N+]1(C)CCC(OC(=O)C(O)(c2ccccc2)C2CCCC2)C1` (stereo not shown) [Glycopyrrolate, reference compound] is lower in Z-SCORE: 0.21 for the first, 0 for the second.

Compared with `COc1ccc2c3c1O[C@H]1C[C@@H](O)C=C[C@@]31CCN(C)C2` [Galanthamine], `COc1ccc(CCN)cc1OC` [Homoveratrylamine] is lower in Z-SCORE: 1.13 for the first, -0.37 for the second.

Compared with `C/C=C1\[C@H]2C=C(C)C[C@]1(N)c1ccc(=O)[nH]c1C2` [HUPERZINE A], `CC(C)Oc1ccc2c(=O)c(-c3ccccc3)coc2c1` [IPRIFLAVONE] is higher in Z-SCORE: -0.3 for the first, 1.41 for the second.

Going from `O=c1c(O[C@@H]2O[C@H](CO)[C@H](O)[C@H](O)[C@H]2O)c(-c2ccc(O)c(O)c2)oc2cc(O)cc(O)c12` [HYPEROSIDE] to `COc1ccc(-c2oc3c(CC=C(C)C)c(O[C@@H]4O[C@H](CO)[C@@H](O)[C@H](O)[C@H]4O)cc(O)c3c(=O)c2O[C@@H]2O[C@@H](C)[C@H](O)[C@@H](O)[C@H]2O)cc1` [ICARIIN], the Z-SCORE falls from 0.68 to -0.37.

First: COC1=C(OC)C(=O)C(CCCCCCCCCCO)=C(C)C1=O [IDEBENONE]
Second: COc1ccc(C(=O)NCc2ccc(OCCN(C)C)cc2)cc1OC.Cl [ITOPRIDE HCl]
The Z-SCORE of the first is higher: 2.79 for the first, 1.68 for the second.

Compared with `CC(C)(C)NC(=O)[C@@H]1CN(Cc2cccnc2)CCN1C[C@@H](O)C[C@@H](Cc1ccccc1)C(=O)N[C@H]1c2ccccc2C[C@H]1O` [INDINAVIR SULPHATE], `CC(C(O)c1ccc(O)cc1)N1CCC(Cc2ccccc2)CC1` (stereo not shown) [Ifenprodil] is higher in Z-SCORE: 0.35 for the first, 1.07 for the second.

Compound `O=C1Nc2ccccc2/C1=C1/Nc2ccccc2C1=O` [Indirubin] has a Z-SCORE of 0.67.

same assay, conditions: compounds at 10 μM, 24 h; PC12 split TEV assay cells co-cultured with Nrg1-expressing PC12 cells; analysed with cellHTS2

Compared with `Nc1nc(F)nc2c1ncn2[C@@H]1O[C@H](CO)[C@@H](O)[C@@H]1O` [FLUDARABINE, reference compound], `Nc1nc(O)c2ncn(COC(CO)CO)c2n1` [Ganciclovir, reference compound] is lower in Z-SCORE: 0.7 for the first, -0.19 for the second.

Going from `CC(=O)OCC(=O)[C@@]12OC(C)(C)O[C@@H]1C[C@H]1[C@@H]3C[C@H](F)C4=CC(=O)C=C[C@]4(C)[C@@]3(F)[C@@H](O)C[C@@]12C` [FLUOCINOLONE ACETONIDE 21-ACETATE, reference compound] to `CC1(C)O[C@@H]2C[C@H]3[C@@H]4C[C@H](F)C5=CC(=O)C=C[C@]5(C)[C@@]4(F)[C@@H](O)C[C@]3(C)[C@]2(C(=O)CO)O1` [FLUOCINOLONE ACETONIDE, reference compound], the Z-SCORE falls from 0.81 to -0.16.

Compared with `CC(C)C(=O)Nc1ccc([N+](=O)[O-])c(C(F)(F)F)c1` [FLUTAMIDE, reference compound], `NS(=O)(=O)c1cc2c(cc1C(F)(F)F)NCNS2(=O)=O` [HYDROFLUMETHIAZIDE, reference compound] is lower in Z-SCORE: 0.85 for the first, -0.47 for the second.

First: NS(=O)(=O)c1cc(C(=O)O)c(NCc2ccco2)cc1Cl [FUROSEMIDE, reference compound]
Second: CC1Cc2ccccc2N1NC(=O)c1ccc(Cl)c(S(N)(=O)=O)c1 (stereo not shown) [INDAPAMIDE, reference compound]
The Z-SCORE of the first is higher: 0.8 for the first, 0.07 for the second.

Compared with `CCOC(=O)C1=C(C)NC(C)=C(C(=O)OC)C1c1cccc(Cl)c1Cl` (stereo not shown) [Felodipine, reference compound], `COC1=CC(=O)C[C@@H](C)[C@]12Oc1c(Cl)c(OC)cc(OC)c1C2=O` [Griseofulvin, reference compound] is higher in Z-SCORE: -1.97 for the first, 0.64 for the second.

First: O=C(NCC1CCCCN1)c1cc(OCC(F)(F)F)ccc1OCC(F)(F)F (stereo not shown) [Flecainide Acetate, reference compound]
Second: COc1ccc(Cl)cc1C(=O)NCCc1ccc(S(=O)(=O)NC(=O)NC2CCCCC2)cc1 [Glyburide, reference compound]
The Z-SCORE of the first is higher: -0.19 for the first, -0.5 for the second.

First: O=c1[nH]c(=O)n([C@H]2C[C@H](O)[C@@H](CO)O2)cc1F [Floxuridine, reference compound]
Second: COc1c(N2CCNC(C)C2)c(F)cc2c(=O)c(C(=O)O)cn(C3CC3)c12 (stereo not shown) [Gatifloxacin, reference compound]
The Z-SCORE of the first is lower: -0.39 for the first, 1.07 for the second.

Going from `OC(Cn1cncn1)(Cn1cncn1)c1ccc(F)cc1F` [Fluconazole, reference compound] to `CC(C(=O)O)c1ccc(-c2ccccc2)c(F)c1` (stereo not shown) [Flurbiprofen, reference compound], the Z-SCORE rises from 0.28 to 0.7.

Compared with `CC(N)C12CC3CC(CC(C3)C1)C2` (stereo not shown) [Flumadine, reference compound], `CC(C)[N+]1(C)[C@@H]2CC[C@H]1C[C@@H](OC(=O)C(CO)c1ccccc1)C2.O.[Br-]` (stereo partly shown) [IPRATROPIUM BROMIDE MONOHYDRATE, reference compound] is higher in Z-SCORE: -0.97 for the first, 0.31 for the second.

First: CC1(C)O[C@@H]2C[C@H]3[C@@H]4C[C@H](F)C5=CC(=O)C=C[C@]5(C)[C@H]4[C@@H](O)C[C@]3(C)[C@]2(C(=O)CO)O1 [FluniSOLIDe, reference compound]
Second: CC(=O)[C@@]1(O)CC[C@H]2[C@@H]3C[C@H](C)C4=CC(=O)C=C[C@]4(C)[C@@]3(F)[C@@H](O)C[C@@]21C [Fluorometholone, reference compound]
The Z-SCORE of the first is higher: 2.03 for the first, -0.4 for the second.

First: Nc1nc(=O)c2nc(CNc3ccc(C(=O)N[C@@H](CCC(=O)O)C(=O)O)cc3)cnc2[nH]1 [Folic acid, reference compound]
Second: Cc1cnc(C(=O)NCCc2ccc(S(=O)(=O)NC(=O)NC3CCCCC3)cc2)cn1 [GLIPIZIDE, reference compound]
The Z-SCORE of the first is lower: 0 for the first, 0.73 for the second.

First: Cc1ccc(C)c(OCCCC(C)(C)C(=O)O)c1 [GEMFIBROZIL, reference compound]
Second: CC(C)Cc1ccc(C(C)C(=O)O)cc1 (stereo not shown) [IBUPROFEN, reference compound]
The Z-SCORE of the first is higher: 0.52 for the first, 0.27 for the second.

First: C[N+]1(C)CCC(OC(=O)C(O)(c2ccccc2)C2CCCC2)C1 (stereo not shown) [Glycopyrrolate, reference compound]
Second: CN(C)C(=O)C(CCN1CCC(O)(c2ccc(Cl)cc2)CC1)(c1ccccc1)c1ccccc1 [Imodium, reference compound]
The Z-SCORE of the first is lower: -0.44 for the first, -0.18 for the second.

Going from `C[C@]12CCC(=O)C=C1CC[C@@H]1[C@@H]2[C@@H](O)C[C@@]2(C)[C@H]1CC[C@]2(O)C(=O)COC(=O)CCC(=O)O` [HYDROCORTISONE HEMISUCCINATE, reference compound] to `C[C@]12CCC(=O)C=C1CC[C@@H]1[C@@H]2[C@@H](O)C[C@@]2(C)[C@H]1CC[C@]2(O)C(=O)CO` [HYDROCORTISONE, reference compound], the Z-SCORE rises from -1.64 to -1.61.

Compared with `NS(=O)(=O)c1cc2c(cc1Cl)NCNS2(=O)=O` [Hydrochlorothiazide, reference compound], `CC(C)NCC(O)COc1cccc2ccccc12` (stereo not shown) [Inderal, reference compound] is lower in Z-SCORE: -0.03 for the first, -0.81 for the second.

`Oc1c(Cl)cc(Cl)c(Cl)c1Cc1c(O)c(Cl)cc(Cl)c1Cl` [Hexachlorophene, reference compound] was tested, and the Z-SCORE was “flagged”.
